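All cell lines were grown in 96-well plates and treated with compound for 48 hours. The concentration for 50% growth inhibition is given as GI50.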 Active and inactive are the calls of the source. Cut-off read from the data, not from the text of the source: active = GI50 up to about 1.1 µM and inactive = higher.
How the values were obtained:
Experiment in all cases: growth of human tumour cells (NCI), 48 h
A549 = tested on: A549
COLO 205 = tested on: COLO 205
HCC 2998 = tested on: HCC 2998
HCT-15 = tested on: HCT-15
HOP-62 = tested on: HOP-62
HOP-92 = tested on: HOP-92
KM-20L2 = tested on: KM-20L2
OVCAR-4 = tested on: OVCAR-4
UO-31 = tested on: UO-31
RXF 393 = tested on: RXF 393
BT-549 = tested on: BT-549
DU-145 = tested on: DU-145
Hs-578T = tested on: Hs-578T
MCF7 = tested on: MCF7
MDA-MB-231 = tested on: MDA-MB-231
MDA-MB-435 = tested on: MDA-MB-435
MDA-N = tested on: MDA-N
NCI/ADR-RES = tested on: NCI/ADR-RES
PC-3 = tested on: PC-3
T47D = tested on: T47D

SMILES	GI50 (A549)	GI50 (COLO 205)	GI50 (HCC 2998)	GI50 (HCT-15)	GI50 (HOP-62)	GI50 (HOP-92)	GI50 (KM-20L2)	GI50 (OVCAR-4)	GI50 (UO-31)	GI50 (RXF 393)	GI50 (BT-549)	GI50 (DU-145)	GI50 (Hs-578T)	GI50 (MCF7)	GI50 (MDA-MB-231)	GI50 (MDA-MB-435)	GI50 (MDA-N)	GI50 (NCI/ADR-RES)	GI50 (PC-3)	GI50 (T47D)
COc1ccc2c(c1)CCCN2CCCCCCCCCCN(CCC(C)C)CCC(C)C	11.7 µM (inactive)	12.1 µM (inactive)	6.98 µM (inactive)	8.34 µM	13.1 µM (inactive)	4.34 µM (inactive)	10.2 µM (inactive)	5.61 µM (inactive)	3.11 µM (inactive)											
Cc1cccc(C)c1NC(=O)CCc1nnc2s/c(=C\c3ccc(N(C)C)cc3)c(=O)n12	> 100 µM (inactive)	> 100 µM (inactive)	> 100 µM (inactive)	> 100 µM	> 100 µM (inactive)	> 100 µM (inactive)	> 100 µM (inactive)	> 100 µM (inactive)	> 100 µM (inactive)	69.2 µM (inactive)										
CC(C)OP(=O)(OC(C)C)c1nc(-c2ccccc2)n(-c2ccc([N+](=O)[O-])cc2)n1	> 100 µM (inactive)	> 100 µM (inactive)	> 100 µM (inactive)	> 100 µM	> 100 µM (inactive)	> 100 µM (inactive)	> 100 µM (inactive)	> 100 µM (inactive)	> 100 µM (inactive)	0.0111 µM (active)										
CC(=O)O[C@H]1C=CC(=O)C(C)CC1C (stereo partly specified)	> 100 µM (inactive)	55.8 µM (inactive)	> 100 µM (inactive)		> 100 µM (inactive)	> 100 µM (inactive)	> 100 µM (inactive)	> 100 µM (inactive)	> 100 µM (inactive)	42.6 µM (inactive)										
Cn1nc2ccc3nccc(N(CCO)CCO)c3c2n1	> 100 µM (inactive)	> 100 µM (inactive)	> 100 µM (inactive)	> 100 µM	> 100 µM (inactive)	> 100 µM (inactive)	> 100 µM (inactive)		> 100 µM (inactive)	> 100 µM (inactive)										
O=c1[nH]c(C2CCCCC2)nc2ccc(Cl)cc12	> 100 µM (inactive)	> 100 µM (inactive)	> 100 µM (inactive)	> 100 µM		> 100 µM (inactive)	> 100 µM (inactive)		93.3 µM (inactive)	> 100 µM (inactive)										
COc1ccc(/C(Cl)=C(\C=O)c2ccc(Cl)c(Cl)c2)cc1		18.8 µM (inactive)		4.6 µM	13.3 µM (inactive)	6.07 µM (inactive)	11.7 µM (inactive)		12.8 µM (inactive)											
C=C(Br)C(C)(Cl)CCC(Br)C(C)(C)Cl (stereo unspecified)	36.1 µM (inactive)	27 µM (inactive)	> 100 µM (inactive)	43 µM	41.2 µM (inactive)	35.1 µM (inactive)		47.8 µM (inactive)	> 100 µM (inactive)	24.7 µM (inactive)	> 100 µM (inactive)	> 100 µM (inactive)	89.7 µM (inactive)	55.3 µM (inactive)	42.3 µM (inactive)	28.4 µM (inactive)	48 µM (inactive)	72.1 µM (inactive)	39.4 µM (inactive)	> 100 µM (inactive)
[O-][S+]1c2ccccc2N=C(c2ccc(Cl)cc2)CC1c1cccs1 (stereo unspecified)	32.4 µM (inactive)	20 µM (inactive)	16.3 µM (inactive)	15.5 µM	79.3 µM (inactive)	19.7 µM (inactive)	20.9 µM (inactive)	11 µM (inactive)	17.7 µM (inactive)	14.4 µM (inactive)										
O=C(Nc1ccc(/N=N/c2ccccc2)cc1)Sc1ccccc1C(=O)O	> 100 µM (inactive)	> 100 µM (inactive)	> 100 µM (inactive)	> 100 µM	> 100 µM (inactive)		> 100 µM (inactive)	> 100 µM (inactive)	> 100 µM (inactive)	71.3 µM (inactive)										
COc1cc(-c2cc(-c3ccccc3)nc(-c3c(OC)ccc4c(C)cc(=O)oc34)c2)cc(OC)c1OC	> 100 µM (inactive)	> 100 µM (inactive)	> 100 µM (inactive)	> 100 µM	> 100 µM (inactive)	> 100 µM (inactive)		> 100 µM (inactive)	> 100 µM (inactive)	> 100 µM (inactive)	> 100 µM (inactive)	> 100 µM (inactive)	> 100 µM (inactive)	74.1 µM (inactive)	> 100 µM (inactive)	> 100 µM (inactive)	> 100 µM (inactive)	> 100 µM (inactive)	> 100 µM (inactive)	> 100 µM (inactive)
O=C(NCCCOC(=O)CCCCCCCCC(=O)OCCCNC(=O)NC(=O)c1c[nH]c(=O)[nH]c1=O)NC(=O)c1c[nH]c(=O)[nH]c1=O	> 100 µM (inactive)	> 100 µM (inactive)	> 100 µM (inactive)	> 100 µM	> 100 µM (inactive)	> 100 µM (inactive)	> 100 µM (inactive)	> 100 µM (inactive)												
CC1NCCc2c1[nH]c1cc(O)ccc21 (stereo unspecified)	> 100 µM (inactive)	> 100 µM (inactive)	> 100 µM (inactive)	> 100 µM	> 100 µM (inactive)	> 100 µM (inactive)	> 100 µM (inactive)	> 100 µM (inactive)	> 100 µM (inactive)	> 100 µM (inactive)										
Nc1nc(O)c2ncn(C3OC(CO)C(O)C3O)c2n1 (stereo unspecified)		57 µM (inactive)	17.1 µM (inactive)		8.63 µM (inactive)		16.8 µM (inactive)	15.9 µM (inactive)	63.7 µM (inactive)	6.84 µM (inactive)				33.8 µM (inactive)				18.4 µM (inactive)		
FC(F)(F)c1ccc2c(c1)N(CCCNCCN1CCOCC1)c1ccccc1S2	14.4 µM (inactive)	2.37 µM (inactive)	2.23 µM (inactive)	6.52 µM	12.4 µM (inactive)	3.4 µM (inactive)	4.69 µM (inactive)		3.83 µM (inactive)	2.62 µM (inactive)										
C/C(=N/NC(=O)CC(=O)N(C(=O)c1ccccc1Cl)c1ccc(C)cc1)c1cc2ccccc2oc1=O	> 100 µM (inactive)	> 100 µM (inactive)	> 100 µM (inactive)	> 100 µM	> 100 µM (inactive)	21.5 µM (inactive)	> 100 µM (inactive)	> 100 µM (inactive)	> 100 µM (inactive)	> 100 µM (inactive)										
CC1=C(C(=O)Nc2ccc(Cl)c(Cl)c2)C(c2ccc([N+](=O)[O-])cc2)C(C(=O)Nc2ccc(Cl)c(Cl)c2)=C(C)N1	2.82 µM (inactive)	1.71 µM (inactive)	2 µM (inactive)	2.6 µM	2.54 µM (inactive)	2.4 µM (inactive)	1.66 µM (inactive)	2.64 µM (inactive)	2.69 µM (inactive)	1.78 µM (inactive)										
O=c1c2c3c(sc2nc2n1N=C(c1ccc([N+](=O)[O-])cc1)CS2)CCCC3	> 100 µM (inactive)	> 100 µM (inactive)	> 100 µM (inactive)	> 100 µM	> 100 µM (inactive)	> 100 µM (inactive)		> 100 µM (inactive)	> 100 µM (inactive)	> 100 µM (inactive)	> 100 µM (inactive)	> 100 µM (inactive)	> 100 µM (inactive)	> 100 µM (inactive)	> 100 µM (inactive)	> 100 µM (inactive)	> 100 µM (inactive)	> 100 µM (inactive)	> 100 µM (inactive)	> 100 µM (inactive)
O=C1CC2C(=O)N(Cc3ccccc3)C1C(S(=O)(=O)c1ccccc1)C2S(=O)(=O)c1ccccc1 (stereo unspecified)	19.1 µM (inactive)	1.69 µM (inactive)	8.02 µM (inactive)	1.32 µM	22.1 µM (inactive)	2.15 µM (inactive)	2.4 µM (inactive)	2.08 µM (inactive)	10.7 µM (inactive)	1.83 µM (inactive)										
C/C1=C\C=C(\C(C)C)CC/C(C(=O)O)=C\CC/C(C)=C/CC1 [NEOCROTOCEMBRANEIC ACID]	30.2 µM (inactive)	23.4 µM (inactive)	18.7 µM (inactive)	21.4 µM	22.8 µM (inactive)	19.4 µM (inactive)		33.4 µM (inactive)	30.3 µM (inactive)	20.7 µM (inactive)	27.5 µM (inactive)	33.1 µM (inactive)	43.6 µM (inactive)	16.9 µM (inactive)	20.7 µM (inactive)	23.6 µM (inactive)	28.8 µM (inactive)	30.5 µM (inactive)	18 µM (inactive)	34.4 µM (inactive)
O=S(=O)(Nc1ccccc1)c1ccc(-c2c3nc(c(-c4ccc(S(=O)(=O)Nc5ccccc5)cc4)c4ccc([nH]4)c(-c4ccc(S(=O)(=O)Nc5ccccc5)cc4)c4nc(c(-c5ccc(S(=O)(=O)Nc6ccccc6)cc5)c5ccc2[nH]5)C=C4)C=C3)cc1	> 31.6 µM (inactive)	> 31.6 µM (inactive)	17.7 µM (inactive)	> 31.6 µM	> 10 µM (inactive)	12.8 µM (inactive)		12.6 µM (inactive)	> 31.6 µM (inactive)	> 31.6 µM (inactive)	> 31.6 µM (inactive)	> 31.6 µM (inactive)	> 31.6 µM (inactive)	> 31.6 µM (inactive)	24 µM (inactive)	> 31.6 µM (inactive)	> 31.6 µM (inactive)	> 31.6 µM (inactive)	> 31.6 µM (inactive)	> 31.6 µM (inactive)
FC(F)(F)C1(Cl)C(Cl)(c2ccccc2)C1(Cl)c1ccccc1 (stereo unspecified)	14.7 µM (inactive)	19.2 µM (inactive)	16.9 µM (inactive)	13.7 µM	16.3 µM (inactive)	12.3 µM (inactive)	13.9 µM (inactive)	14.2 µM (inactive)	14.8 µM (inactive)	13.9 µM (inactive)										
Brc1nc2c3ccccc3ncn2c1Br	38.8 µM (inactive)	16.3 µM (inactive)	46.9 µM (inactive)	35.3 µM	44.6 µM (inactive)	27.9 µM (inactive)	28.4 µM (inactive)	16 µM (inactive)	36.7 µM (inactive)	35.6 µM (inactive)										

Reference: ChEMBL document CHEMBL1201862, “PubChem BioAssay data set” (2004)
